The first experiment relates to MOLM13 cells. Briefly: Growth inhibition of CDK9-positive cell line MOLM13 in vitro (CCK8/MTT assay). The experiment is classed as cell-based, human. Conditions: Homo sapiens, MOLM-13, read-out: IC50 of the compound for inhibiting cell growth, MOLM13 cells.
For `CN1CCN(CCN(C)c2ccc(Nc3nccc(-n4cc(C(N)=O)c5ccccc54)n3)cc2)CC1` [Compound 73, 1-[2-(4-{methyl-[2-(4-methyl-piperazin-1-yl)-ethyl]-amino}-phenylamino)-pyrimidin-4-yl]-1H-indole-3-carboxamide], the IC50 – broadly, the concentration needed to halve the response being measured – was in the range of 1 to 10 nM.

Still in this experiment, the particulars now being: Homo sapiens, MOLM-13; MOLM13 cells, cultured 3 to 6 days, CCK8; read-out: IC50 of the compound for inhibiting cell growth, MOLM13 cells.
For the compound `CC(=O)N1CCN(Cc2ccc(Nc3nccc(-n4cc(C(N)=O)c5ccccc54)n3)cc2)CC1` [Compound 15, 1-{2-[4-(4-acetyl-piperazin-1-methyl)-phenylamino]-pyrimidin-4-yl}-1H-indole-3-carboxamide], the IC50 was in the range of 10 to 100 nM.

As for `COc1cc(Nc2nccc(-n3cc(C(N)=O)c4ccccc43)n2)ccc1N(C)CCN1CCCC1` [Compound 91], the IC50 lay in the range of 1 to 10 nM.

Consider `CN1CCN(c2cccc(Nc3nccc(-n4cc(C(N)=O)c5ccccc54)n3)c2)CC1` [Compound 113, 1-{2-[3-(4-methyl-piperazin-1-yl)-phenylamino]-pyrimidin-4-yl}-1H-indole-3-carboxamide], for which the IC50 was less than 1 nM.

In the case of `COc1cc(Nc2nccc(-n3cc(C(N)=O)c4ccccc43)n2)ccc1N(C)CCN(C)C` [Compound 80, 1-(2-{4-[(2-dimethylamino-ethyl)-methyl-amino]-3-methoxy-phenylamino}-pyrimidin-4-yl)-1H-indole-3-carboxamide], the 50% inhibitory concentration (IC50) was 1 to 10 nM.

Turning to `Cc1cc(Nc2ncc(F)c(-n3cc(C(N)=O)c4ccccc43)n2)ccc1N(C)CCN1CCCC1` [Compound 96, 1-(5-fluoro-2-{3-methyl-4-[methyl-(2-pyrrolidin-1-yl-ethyl)-amino]-phenylamino}-pyrimidin-4-yl)-1H-indole-3-carboxamide], the IC50 fell in the range of 1 to 10 nM.

Regarding `Cc1cnn(-c2cccc(Nc3ncc(F)c(-n4cc(C(N)=O)c5ccccc54)n3)c2)c1` [Compound 154, 1-{5-fluoro-2-[3-(4-methyl-pyrazol-1-yl)-phenylamino]-pyrimidin-4-yl}-1H-indole-3-carboxamide], the IC50 lay within 100 to 1000 nM.

With `CN(C)CCOc1cccc(Nc2nccc(-n3cc(C(N)=O)c4ccccc43)n2)c1` [Compound 129, 1-{2-[3-(2-dimethylamino-ethoxy)-phenylamino]-pyrimidin-4-yl}-1H-indole-3-carboxamide], the concentration for half-maximal inhibition (IC50) lay within 10 to 100 nM.

Turning to `COCCN1CCN(c2cccc(Nc3nccc(-n4cc(C(N)=O)c5ccccc54)n3)c2)CC1` [Compound 126, 1-(2-{3-[4-(2-methoxy-ethyl)-piperazin-1-yl]-phenylamino]-pyrimidin-4-yl}-1H-indole-3-carboxamide], the IC50 fell in the range of 1 to 10 nM.

Turning to `NC(=O)c1cn(-c2ccnc(Nc3ccc(N4CCOCC4)c(F)c3)n2)c2ccccc12` [Compound 71, 1-[2-(3-fluoro-4-morpholin-4-yl-phenylamino)-pyrimidin-4-yl]-1H-indole-3-carboxamide], the IC50 was in the range of 10 to 100 nM.

`CNC(=O)c1cn(-c2ccnc(Nc3cccc(N4CCNCC4)c3)n2)c2ccccc12` [Compound 107, 1-[2-(3-piperazin-1-yl-phenylamino)-pyrimidin-4-yl]-1H-indole-3-carboxmethylamide]: the IC50 was 10 to 100 nM.

As for `COc1cc(Nc2ncc(F)c(-n3cc(C(N)=O)c4ccccc43)n2)ccc1N(C)CCN1CCCC1` [Compound 98, 1-(5-fluoro-2-{3-methoxy-4-[methyl-(2-pyrrolidin-1-yl-ethyl)-amino]-phenylamino}-pyrimidin-4-yl)-1H-indole-3-carboxamide], the IC50 lay within 1 to 10 nM.

Consider `CN(CCN1CCCC1)c1ccc(Nc2ncc(F)c(-n3cc(C(N)=O)c4ccccc43)n2)cc1F` [Compound 95, 1-(5-fluoro-2-{3-fluoro-4-[methyl-(2-pyrrolidin-1-yl-ethyl)-amino]-phenylamino}-pyrimidin-4-yl)-1H-indole-3-carboxamide], for which the IC50 was in the range of 10 to 100 nM.

For the compound `CC(=O)N1CCN(c2ccc(Nc3nccc(-n4cc(C(N)=O)c5ccccc54)n3)cc2F)CC1` [Compound 66, 1-{2-[4-(4-acetyl-piperazin-1-yl)-3-fluoro-phenylamino]-pyrimidin-4-yl}-1H-indole-3-carboxamide], the IC50 lay in the range of 10 to 100 nM.

As for `NC(=O)c1cn(-c2ccnc(Nc3ccc(C(F)(F)F)c(Cl)c3)n2)c2ccccc12` [Compound 2, 1-[2-(3-chloro-4-trifluoromethyl-phenylamino)-pyrimidin-4-yl]-1H-indole-3-carboxamide], the IC50 was more than 1000 nM.

In the case of `COc1ccc(Nc2ncc(Cl)c(-n3cc(C(N)=O)c4ccccc43)n2)cc1N1CCN(C)CC1` [Compound 122, 1-{5-chloro-2-[4-methoxy-3-(4-methyl-piperazin-1-yl)-phenylamino]-pyrimidin-4-yl}-1H-indole-3-carboxamide], the IC50 was in the range of 10 to 100 nM.

On to `NC(=O)c1cn(-c2nc(Nc3cccc(N4CCC(N5CCOCC5)CC4)c3)ncc2F)c2ccccc12` [Compound 139, 1-{5-fluoro-2-[3-(4-morpholin-4-yl-piperidin-1-yl)-phenylamino]-pyrimidin-4-yl}-1H-indole-3-carboxamide], for which the IC50 lay in the range of 1 to 10 nM.

`COc1cc(Nc2nccc(-n3cc(C(N)=O)c4ccccc43)n2)ccc1N1CCN(C)CC1` [Compound 48, 1-{2-[3-methoxy-4-(4-methyl-piperazin-1-yl)-phenylamino]-pyrimidin-4-yl}-1H-indole-3-carboxamide]: the IC50 lay in the range of 10 to 100 nM.

`NC(=O)c1cn(-c2ccnc(Nc3ccc(N4CCNCC4)cc3)n2)c2ccc(Br)cc12` [Compound 32, 5-bromo-1-[2-(4-piperazin-1-yl-phenylamino)-pyrimidin-4-yl]-1H-indole-3-carboxamide]: the IC50 was in the range of 10 to 100 nM.

`CN1CCN(Cc2cccc(Nc3ncc(F)c(-n4cc(C(N)=O)c5ccccc54)n3)c2)CC1` [Compound 143, 1-{5-fluoro-2-[3-(4-methyl-piperazin-1-ylmethyl)-phenylamino]-pyrimidin-4-yl}-1H-indole-3-carboxamide]: the IC50 lay within 10 to 100 nM.

Take `NC(=O)c1cn(-c2ccnc(Nc3cccc(N4CCNCC4)c3)n2)c2ccccc12` [Compound 111, 1-[2-(3-piperazin-1-yl-phenylamino)-pyrimidin-4-yl]-1H-indole-3-carboxamide]: the IC50 was in the range of 1 to 10 nM.

As to `COc1cc(Nc2ncc(C)c(-n3cc(C(N)=O)c4ccccc43)n2)ccc1N(C)CCN1CCCC1` [Compound 100, 1-(2-{3-methoxy-4-[methyl-(2-pyrrolidin-1-yl-ethyl)-amino]-phenylamino}-5-methyl-pyrimidin-4-yl)-1H-indole-3-carboxamide], the IC50 was 1 to 10 nM.

As for `NC(=O)c1cn(-c2nc(Nc3cccc(N4CCN(C(=O)C5CCCO5)CC4)c3)ncc2F)c2ccccc12` (stereo not shown) [Compound 158, 1-(5-fluoro-2-{3-[4-(tetrahydro-furan-2-carbonyl)-piperazin-1-yl]-phenylamino}-pyrimidin-4-yl)-1H-indole-3-carboxamide], the IC50 lay within 10 to 100 nM.

Regarding `CN(C)CCOc1ccc(Nc2nccc(-n3cc(C(N)=O)c4ccccc43)n2)cc1` [Compound 19, 1-{2-[4-(2-dimethylamino-ethoxy)-phenylamino]-pyrimidin-4-yl}-1H-indole-3-carboxamide], the half-maximal inhibitory concentration (IC50) lay within 10 to 100 nM.

`CCC(=O)N1CCN(c2ccc(Nc3nccc(-n4cc(C(N)=O)c5ccccc54)n3)cc2C)CC1` [Compound 65, 1-{2-[3-methyl-4-(4-propionyl-piperazin-1-yl)-phenylamino]-pyrimidin-4-yl}-1H-indole-3-carboxamide]: the IC50 was 10 to 100 nM.

The values above are taken from patent publication US20210101881A1 (Ancureall Pharmaceutical (Shanghai) Co., Ltd., priority 2018, published 2021).
